# Reference: ChEMBL document CHEMBL1151101, “Irritant principles of the mezereon family (Thymelaeaceae), V. New skin irritants and tumor promoters of the daphnane and 1 alpha-alkyldaphnane type from Synaptolepis kirkii and Synaptolepis retusa” (J Nat Prod, 1988)
# How the values were obtained:
# Mus musculus [1] = species on record: Mus musculus; experiment: Skin irritant activity in NMRI mouse ear assessed as irritancy after 24 hrs; format: ADME, organism-based; conditions: in vivo
# Mus musculus [2] = species on record: Mus musculus; experiment: Skin irritant activity in NMRI mouse ear assessed as irritant dose 50 per ear after 24 hrs; format: ADME, organism-based; conditions: in vivo
# Mus musculus [3] = species on record: Mus musculus; experiment: Tumor promoting activity of DMBA-initiated tumor in back skin of NMRI mouse assessed as average tumor yeild at 2.5 nmol twice weekly measured after 24 weeks; format: ADME, organism-based, Zone of skin; conditions: in vivo, 4032 h
# Mus musculus [4] = species on record: Mus musculus; experiment: Tumor promoting activity of DMBA-initiated tumor in back skin of NMRI mouse assessed as tumor rate at 5 nmol twice weekly measured after 24 weeks; format: organism-based, Zone of skin; conditions: in vivo, 4032 h
# Mus musculus [5] = species on record: Mus musculus; experiment: Tumor promoting activity of DMBA-initiated tumor in back skin of NMRI mouse assessed as average tumor yeild at 5 nmol twice weekly measured after 12 weeks; format: organism-based, Zone of skin; conditions: in vivo, 2016 h
# [6] = Tumor promoting activity of DMBA-initiated tumor in back skin of NMRI mouse assessed as survival rate at 2.5 nmol twice weekly measured after 24 weeks; format: organism-based, Zone of skin; conditions: in vivo, topical or ocular
# [7] = Tumor promoting activity of DMBA-initiated tumor in back skin of NMRI mouse assessed as survival rate at 5 nmol twice weekly measured after 24 weeks; format: organism-based, Zone of skin; conditions: in vivo, topical or ocular
# Mus musculus [8] = species on record: Mus musculus; experiment: Tumor promoting activity of DMBA-initiated tumor in back skin of NMRI mouse assessed as tumor rate at 2.5 nmol twice weekly measured after 12 weeks; format: organism-based, Zone of skin; conditions: in vivo, 2016 h
# Mus musculus [9] = species on record: Mus musculus; experiment: Tumor promoting activity of DMBA-initiated tumor in back skin of NMRI mouse assessed as tumor rate at 5 nmol twice weekly measured after 12 weeks; format: organism-based, Zone of skin; conditions: in vivo, 2016 h
# Mus musculus [10] = species on record: Mus musculus; experiment: Tumor promoting activity of DMBA-initiated tumor in back skin of NMRI mouse assessed as average tumor yeild at 2.5 nmol twice weekly measured after 12 weeks; format: ADME, organism-based, Zone of skin; conditions: in vivo, 2016 h
# Mus musculus [11] = species on record: Mus musculus; experiment: Tumor promoting activity of DMBA-initiated tumor in back skin of NMRI mouse assessed as tumor rate at 2.5 nmol twice weekly measured after 24 weeks; format: organism-based, Zone of skin; conditions: in vivo, 4032 h
# Mus musculus [12] = species on record: Mus musculus; experiment: Tumor promoting activity of DMBA-initiated tumor in back skin of NMRI mouse assessed as average tumor yeild at 5 nmol twice weekly measured after 24 weeks; format: organism-based, Zone of skin; conditions: in vivo, 4032 h
# [13] = Tumor promoting activity of DMBA-initiated tumor in back skin of NMRI mouse assessed as survival rate at 20 nmol twice weekly measured after 24 weeks; format: organism-based, Zone of skin; conditions: in vivo, topical or ocular
# [14] = Tumor promoting activity of DMBA-initiated tumor in back skin of NMRI mouse assessed as survival rate at 10 nmol twice weekly measured after 24 weeks; format: organism-based, Zone of skin; conditions: in vivo, topical or ocular
# Mus musculus [15] = species on record: Mus musculus; experiment: Tumor promoting activity of DMBA-initiated tumor in back skin of NMRI mouse assessed as tumor rate at 10 nmol twice weekly measured after 12 weeks; format: organism-based, Zone of skin; conditions: in vivo, 2016 h
# Mus musculus [16] = species on record: Mus musculus; experiment: Tumor promoting activity of DMBA-initiated tumor in back skin of NMRI mouse assessed as average tumor yeild at 10 nmol twice weekly measured after 12 weeks; format: organism-based, Zone of skin; conditions: in vivo, 2016 h
# Mus musculus [17] = species on record: Mus musculus; experiment: Tumor promoting activity of DMBA-initiated tumor in back skin of NMRI mouse assessed as average tumor yeild at 20 nmol twice weekly measured after 12 weeks; format: organism-based, Zone of skin; conditions: in vivo, 2016 h
# Mus musculus [18] = species on record: Mus musculus; experiment: Tumor promoting activity of DMBA-initiated tumor in back skin of NMRI mouse assessed as tumor rate at 20 nmol twice weekly measured after 24 weeks; format: organism-based, Zone of skin; conditions: in vivo, 4032 h
# Mus musculus [19] = species on record: Mus musculus; experiment: Tumor promoting activity of DMBA-initiated tumor in back skin of NMRI mouse assessed as average tumor yeild at 10 nmol twice weekly measured after 24 weeks; format: organism-based, Zone of skin; conditions: in vivo, 4032 h
# Mus musculus [20] = species on record: Mus musculus; experiment: Tumor promoting activity of DMBA-initiated tumor in back skin of NMRI mouse assessed as average tumor yeild at 20 nmol twice weekly measured after 24 weeks; format: organism-based, Zone of skin; conditions: in vivo, 4032 h
# Mus musculus [21] = species on record: Mus musculus; experiment: Tumor promoting activity of DMBA-initiated tumor in back skin of NMRI mouse assessed as tumor rate at 20 nmol twice weekly measured after 12 weeks; format: organism-based, Zone of skin; conditions: in vivo, 2016 h
# Mus musculus [22] = species on record: Mus musculus; experiment: Tumor promoting activity of DMBA-initiated tumor in back skin of NMRI mouse assessed as tumor rate at 10 nmol twice weekly measured after 24 weeks; format: organism-based, Zone of skin; conditions: in vivo, 4032 h
smiles,measurement,setting,value
C=C(C)[C@]12C[C@@H](C)[C@@]34O[C@](/C=C\C=C\CCCCC)(O[C@@H]1[C@@H]3[C@@H]1O[C@]1(CO)[C@@H](O)[C@]1(O)C(=O)C(C)=C[C@H]14)O2,Activity,Mus musculus [1],6.7 nmol⁻¹
same,Activity,Mus musculus [2],0.15 nmol
C=C(C)[C@]12O[C@@]34/C=C/CCCCCCCCCCC[C@H](C)[C@H]5[C@H](C)C(=O)[C@@]6(O)[C@H](O)[C@@]7(CO)O[C@H]7[C@@H]([C@H]1O3)[C@](O4)([C@H](C)[C@H]2OC(C)=O)[C@H]56,Activity,Mus musculus [3],0.6
same,Activity,Mus musculus [1],100 nmol⁻¹
same,Activity,Mus musculus [4],100%
same,Activity,Mus musculus [5],0.33
same,survival at 4032 h,[6],94%
same,survival at 4032 h,[7],99%
same,Activity,Mus musculus [8],0%
same,Activity,Mus musculus [9],33%
same,Activity,Mus musculus [2],0.01 nmol
same,Activity,Mus musculus [10],0
same,Activity,Mus musculus [11],27%
same,Activity,Mus musculus [12],4.4
C=C(C)[C@]12C[C@@H](C)[C@@]34O[C@](CCCCCCCCC)(O[C@@H]1[C@@H]3[C@@H]1O[C@]1(CO)[C@@H](O)[C@]1(O)C(=O)C(C)=C[C@H]14)O2 [SIMPLEXIN],survival at 4032 h,[13],100%
same,survival at 4032 h,[14],93%
same,Activity,Mus musculus [15],4%
same,Activity,Mus musculus [1],77 nmol⁻¹
same,Activity,Mus musculus [16],0.2
same,Activity,Mus musculus [17],0.6
same,Activity,Mus musculus [18],71%
same,Activity,Mus musculus [19],1.7
same,Activity,Mus musculus [2],0.013 nmol
same,Activity,Mus musculus [20],3
same,Activity,Mus musculus [21],20%
same,Activity,Mus musculus [22],54%
C=C(C)[C@]12O[C@@]3(/C=C/C=C/CCCCC)O[C@@H]1[C@@H]1[C@@H]4O[C@]4(CO)[C@@H](O)[C@]4(O)C(=O)C(C)=C[C@H]4[C@@]1(O3)[C@H](C)[C@H]2OC(C)=O,survival at 4032 h,[13],88%
same,Activity,Mus musculus [1],3.7 nmol⁻¹
same,Activity,Mus musculus [17],0
same,Activity,Mus musculus [18],14%
same,Activity,Mus musculus [2],0.27 nmol
same,Activity,Mus musculus [20],0.36
same,Activity,Mus musculus [21],0%
C=C(C)[C@]12C[C@@H](C)[C@@]34O[C@](/C=C/CCCCCCCCCCCCC)(O[C@@H]1[C@@H]3[C@@H]1O[C@]1(COC(=O)CCCCCCCCCCCCCCC)[C@@H](O)[C@]1(O)C(=O)C(C)=C[C@H]14)O2,Activity,Mus musculus [1],6.3 nmol⁻¹
same,Activity,Mus musculus [2],0.16 nmol
C=C(C)[C@]12C[C@@H](C)[C@@]34O[C@](CCCCCCCCCCCCCCC)(O[C@@H]1[C@@H]3[C@@H]1O[C@]1(CO)[C@@H](O)[C@]1(O)C(=O)C(C)=C[C@H]14)O2,Activity,Mus musculus [1],25 nmol⁻¹
same,Activity,Mus musculus [2],0.04 nmol
C=C(C)[C@]12O[C@@]3(/C=C/C=C/CCCCC)O[C@@H]1[C@@H]1[C@@H]4O[C@]4(CO)[C@@H](O)[C@]4(O)C(=O)C(C)=C[C@H]4[C@@]1(O3)[C@H](C)[C@H]2O,Activity,Mus musculus [1],1.1 nmol⁻¹
same,Activity,Mus musculus [2],0.92 nmol
C=C(C)[C@]12O[C@@]34/C=C/CCCCCCCCCCCC(C)[C@H]5[C@H](C)C(=O)[C@@]6(O)[C@H](O)[C@@]7(CO)O[C@H]7[C@@H]([C@H]1O3)[C@](O4)([C@H](C)[C@H]2O)[C@H]56 (stereo partly specified),Activity,Mus musculus [3],2.9
same,Activity,Mus musculus [1],667 nmol⁻¹
same,Activity,Mus musculus [4],86%
same,Activity,Mus musculus [5],1.3
same,survival at 4032 h,[6],100%
same,survival at 4032 h,[7],94%
same,Activity,Mus musculus [8],6.7%
same,Activity,Mus musculus [9],60%
same,Activity,Mus musculus [2],0.0015 nmol
same,Activity,Mus musculus [10],0.33
same,Activity,Mus musculus [11],87%
same,Activity,Mus musculus [12],2.7
C=C(C)[C@@]1(O)C[C@@H](C)[C@@]2(O)[C@H]([C@H]1OC(=O)/C=C/CCCCCCCCCCCCC)[C@@H]1O[C@]1(CO)[C@@H](O)[C@]1(O)C(=O)C(C)=C[C@H]12,Activity,Mus musculus [1],29 nmol⁻¹
same,Activity,Mus musculus [2],0.035 nmol
C=C(C)[C@]12O[C@@]3(/C=C/C=C/C=C\CCC)O[C@@H]1[C@@H]1[C@@H]4O[C@]4(CO)[C@@H](O)[C@]4(O)C(=O)C(C)=C[C@H]4[C@@]1(O3)[C@H](C)[C@H]2OC(C)=O,survival at 4032 h,[13],100%
same,Activity,Mus musculus [1],0.91 nmol⁻¹
same,Activity,Mus musculus [17],0
same,Activity,Mus musculus [18],0%
same,Activity,Mus musculus [2],1.1 nmol
same,Activity,Mus musculus [20],0
same,Activity,Mus musculus [21],0%
C=C(C)[C@]12C[C@@H](C)[C@@]34O[C@](/C=C\C=C\CCCCCCCCCC)(O[C@@H]1[C@@H]3[C@@H]1O[C@]1(CO)[C@@H](O)[C@]1(O)C(=O)C(C)=C[C@H]14)O2,Activity,Mus musculus [1],50 nmol⁻¹
same,Activity,Mus musculus [2],0.02 nmol
C=C(C)[C@@]12C[C@@H](C)[C@@]34O[C@@]5(/C=C/CCCCCCCCCCCC(C)(O)[C@H]6[C@H](C)C(=O)[C@@](O)([C@H](O)[C@@]7(CO)O[C@H]7[C@H]3[C@H]1O5)[C@@H]64)O2 (stereo partly specified),Activity,Mus musculus [1],6 nmol⁻¹
same,Activity,Mus musculus [2],0.016 nmol
C=C(C)[C@@]1(OC(=O)/C=C/CCCCCCCCCCCCC)C[C@@H](C)[C@@]2(O)[C@H]([C@H]1O)[C@@H]1O[C@]1(CO)[C@@H](O)[C@]1(O)C(=O)C(C)=C[C@H]12,Activity,Mus musculus [1],13 nmol⁻¹
same,Activity,Mus musculus [2],0.08 nmol
C=C(C)[C@@]1(O)C[C@@H](C)[C@@]2(O)[C@H]([C@H]1OC(=O)/C=C/CCCCCCCCCCCCC)[C@@H]1O[C@]1(COC(=O)CCCCCCCCCCCCCCC)[C@@H](O)[C@]1(O)C(=O)C(C)=C[C@H]12,Activity,Mus musculus [1],0.15 nmol⁻¹
same,Activity,Mus musculus [2],20 nmol
C=C(C)[C@@]12C[C@@H](C)[C@@]34O[C@@]5(/C=C/CCCCCCCCCCCC(C)[C@H]6[C@H](C)C(=O)[C@@](O)([C@H](O)[C@@]7(COC(=O)CCCCCCCCCCCCCCC)O[C@H]7[C@H]3[C@H]1O5)[C@@H]64)O2 (stereo partly specified),Activity,Mus musculus [1],53 nmol⁻¹
same,Activity,Mus musculus [2],0.019 nmol
C=C(C)[C@]12O[C@@]3(/C=C/C=C/CCCCCCCCC)O[C@@H]1[C@@H]1[C@@H]4O[C@]4(CO)[C@@H](O)[C@]4(O)C(=O)C(C)=C[C@H]4[C@@]1(O3)[C@H](C)[C@H]2OC(C)=O,Activity,Mus musculus [1],33 nmol⁻¹
same,Activity,Mus musculus [2],0.03 nmol
C=C(C)[C@]12C[C@@H](C)[C@@]34O[C@](/C=C/CCCCCCCCCCCCC)(O[C@@H]1[C@@H]3[C@@H]1O[C@]1(CO)[C@@H](O)[C@]1(O)C(=O)C(C)=C[C@H]14)O2,survival at 4032 h,[14],94%
same,Activity,Mus musculus [15],94%
same,Activity,Mus musculus [1],50 nmol⁻¹
same,Activity,Mus musculus [4],69%
same,Activity,Mus musculus [5],0.13
same,Activity,Mus musculus [16],4.7
same,survival at 4032 h,[7],100%
same,Activity,Mus musculus [9],6%
same,Activity,Mus musculus [19],9.7
same,Activity,Mus musculus [2],0.02 nmol
same,Activity,Mus musculus [12],2.9
same,Activity,Mus musculus [22],100%
C=C(C)[C@]12O[C@@]3(/C=C/C=C/C=C\CCC)O[C@@H]1[C@@H]1[C@@H]4O[C@]4(CO)[C@@H](O)[C@]4(O)C(=O)C(C)=C[C@H]4[C@@]1(O3)[C@H](C)[C@H]2O,Activity,Mus musculus [1],1.2 nmol⁻¹
same,Activity,Mus musculus [2],0.81 nmol
